Measurements from the NIST ThermoML archive (doi:10.1016/j.jct.2017.10.002).
Values joined by “and” are separate entries in the source; they are usually repeats but may differ in a detail not shown here. Equal entries are not always repeated. ± gives the expanded uncertainty stated by the source.

Test: molar heat capacity at constant pressure
Conditions: 101.33 kPa, relaxation calorimetry

CCc1ncc[n-]1.CCc1ncc[n-]1.[Zn+2] [zinc(II) 2-ethylimidazolide]
molar heat capacity at constant pressure
Conditions | Crystal | Glass
1 K | – | 0.01063 ± 0.00094 J/K/mol
1.832 K | 0.0493 ± 0.0038 J/K/mol | –
1.836 K | 0.01638 ± 0.0012 J/K/mol | –
1.837 K | 0.04503 ± 0.0034 J/K/mol | –
1.839 K | – | 0.03581 ± 0.0028 J/K/mol
1.88 K | 0.05213 ± 0.004 J/K/mol | –
1.914 K | 0.04977 ± 0.0037 J/K/mol | –
1.915 K | – | 0.04142 ± 0.0031 J/K/mol
1.916 K | 0.0188 ± 0.0014 J/K/mol | –
1.932 K | 0.05559 ± 0.0042 J/K/mol | –
1.989 K | 0.0603 ± 0.0046 J/K/mol | –
2 K | 0.0589 ± 0.0042 J/K/mol [middle of 4 runs] | 0.04827 ± 0.003 J/K/mol
2.001 K | – | 0.04687 ± 0.0036 J/K/mol
2.005 K | 0.02171 ± 0.0016 J/K/mol | –
2.051 K | 0.06589 ± 0.0048 J/K/mol | –
2.09 K | 0.06722 ± 0.0046 J/K/mol | –
2.091 K | – | 0.05348 ± 0.0039 J/K/mol
2.099 K | 0.02469 ± 0.0017 J/K/mol | –
2.118 K | 0.07352 ± 0.0053 J/K/mol | –
2.183 K | 0.07697 ± 0.005 J/K/mol | –
2.184 K | – | 0.06212 ± 0.0041 J/K/mol
2.19 K | 0.08177 ± 0.0055 J/K/mol | –
2.197 K | 0.02817 ± 0.0019 J/K/mol | –
2.265 K | 0.0916 ± 0.006 J/K/mol | –
2.283 K | 0.08765 ± 0.0056 J/K/mol | –
2.285 K | – | 0.07138 ± 0.0047 J/K/mol
2.301 K | 0.03272 ± 0.0021 J/K/mol | –
2.346 K | 0.1035 ± 0.0065 J/K/mol | –
2.41 K | 0.03888 ± 0.0024 J/K/mol | –
2.411 K | 0.1031 ± 0.0064 J/K/mol | –
2.417 K | – | 0.08449 ± 0.0053 J/K/mol
2.488 K | 0.1258 ± 0.0076 J/K/mol | –
2.509 K | – | 0.09566 ± 0.0058 J/K/mol
2.512 K | 0.1183 ± 0.0071 J/K/mol | –
2.516 K | 0.04352 ± 0.0026 J/K/mol | –
2.61 K | 0.1475 ± 0.0088 J/K/mol | –
2.615 K | 0.135 ± 0.008 J/K/mol | –
2.639 K | 0.0517 ± 0.0031 J/K/mol | –
2.646 K | – | 0.1124 ± 0.0067 J/K/mol
2.733 K | 0.1558 ± 0.0091 J/K/mol | –
2.738 K | – | 0.1254 ± 0.0074 J/K/mol
2.739 K | 0.1709 ± 0.01 J/K/mol | –
2.744 K | 0.0566 ± 0.0033 J/K/mol | –
2.854 K | 0.06599 ± 0.0039 J/K/mol | –
2.858 K | 0.194 ± 0.011 J/K/mol | –
2.86 K | 0.1727 ± 0.01 J/K/mol | –
2.868 K | – | 0.1481 ± 0.0086 J/K/mol
2.979 K | 0.1934 ± 0.011 J/K/mol | –
2.986 K | 0.2216 ± 0.013 J/K/mol | 0.1712 ± 0.0097 J/K/mol
2.992 K | 0.07481 ± 0.0043 J/K/mol | –
3 K | 0.2257 ± 0.013 J/K/mol and 0.076 ± 0.0044 J/K/mol and 0.2038 ± 0.012 J/K/mol | 0.168 ± 0.0097 J/K/mol
3.106 K | 0.08446 ± 0.0048 J/K/mol | –
3.109 K | 0.2254 ± 0.013 J/K/mol | –
3.118 K | 0.2529 ± 0.014 J/K/mol | –
3.122 K | – | 0.1906 ± 0.011 J/K/mol
3.246 K | 0.09833 ± 0.0056 J/K/mol | –
3.248 K | 0.2525 ± 0.014 J/K/mol | –
3.259 K | 0.2898 ± 0.017 J/K/mol | –
3.264 K | – | 0.2232 ± 0.013 J/K/mol
3.388 K | 0.2988 ± 0.017 J/K/mol | –
3.395 K | 0.1127 ± 0.0064 J/K/mol | –
3.397 K | – | 0.2534 ± 0.014 J/K/mol
3.407 K | 0.3327 ± 0.019 J/K/mol | –
3.536 K | 0.3331 ± 0.019 J/K/mol | –
3.537 K | 0.1275 ± 0.0072 J/K/mol | –
3.551 K | – | 0.2838 ± 0.016 J/K/mol
3.562 K | 0.381 ± 0.021 J/K/mol | –
3.691 K | 0.3887 ± 0.022 J/K/mol | –
3.692 K | 0.1432 ± 0.008 J/K/mol | –
3.699 K | – | 0.3307 ± 0.018 J/K/mol
3.737 K | 0.4416 ± 0.025 J/K/mol | –
3.853 K | 0.4343 ± 0.024 J/K/mol and 0.1693 ± 0.0094 J/K/mol | –
3.861 K | – | 0.3658 ± 0.02 J/K/mol
3.916 K | 0.5079 ± 0.028 J/K/mol | –
4 K | 0.5386 ± 0.03 J/K/mol and 0.1872 ± 0.01 J/K/mol and 0.4762 ± 0.026 J/K/mol | 0.4158 ± 0.023 J/K/mol
4.023 K | 0.1911 ± 0.011 J/K/mol | –
4.024 K | 0.4906 ± 0.027 J/K/mol | –
4.033 K | – | 0.4343 ± 0.024 J/K/mol
4.093 K | 0.5776 ± 0.032 J/K/mol | –
4.203 K | 0.2234 ± 0.012 J/K/mol | –
4.204 K | 0.5288 ± 0.029 J/K/mol | –
4.213 K | – | 0.4859 ± 0.027 J/K/mol
4.288 K | 0.6588 ± 0.036 J/K/mol | –
4.385 K | 0.6193 ± 0.034 J/K/mol | –
4.39 K | 0.2481 ± 0.014 J/K/mol | –
4.397 K | – | 0.5485 ± 0.03 J/K/mol
4.475 K | 0.7416 ± 0.041 J/K/mol | –
4.577 K | 0.2815 ± 0.016 J/K/mol | –
4.58 K | 0.6992 ± 0.038 J/K/mol | –
4.588 K | – | 0.6228 ± 0.034 J/K/mol
4.673 K | 0.833 ± 0.045 J/K/mol | –
4.782 K | 0.3148 ± 0.017 J/K/mol | –
4.784 K | 0.7873 ± 0.043 J/K/mol | –
4.797 K | – | 0.7076 ± 0.039 J/K/mol
4.885 K | 0.9362 ± 0.051 J/K/mol | –
4.995 K | 0.8682 ± 0.047 J/K/mol and 0.3599 ± 0.02 J/K/mol | –
5 K | 0.9962 ± 0.054 J/K/mol and 0.3674 ± 0.02 J/K/mol and 0.8773 ± 0.048 J/K/mol | 0.8029 ± 0.044 J/K/mol
5.008 K | – | 0.8138 ± 0.044 J/K/mol
5.104 K | 1.051 ± 0.057 J/K/mol | –
5.217 K | 0.968 ± 0.053 J/K/mol and 0.4058 ± 0.022 J/K/mol | –
5.228 K | – | 0.8928 ± 0.049 J/K/mol
5.341 K | 1.18 ± 0.064 J/K/mol | –
5.447 K | 1.121 ± 0.061 J/K/mol | –
5.449 K | 0.4865 ± 0.027 J/K/mol | –
